Common to all, as to test: Kinase profiling screen (radioactive filter-binding assay)
Format in all cases: biochemical

One experiment concerns the target EF2K (Homo sapiens, UniProt O00418). As to conditions: 100 μM compound, 5 μM ATP; read-out: Kinase activity, % of activity in the absence of inhibitor. The method in brief:
(§1)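 Panel of 117 recombinant kinases; CoA, dpCoA, ADP each at 100 μM final, duplicates; model substrates, ATP at optimal level.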

The target of another experiment is MELK (Homo sapiens, UniProt Q14680). Conditions: 100 μM compound, 50 μM ATP; read-out: Kinase activity, % of activity in the absence of inhibitor. The method in brief: as §1
A further experiment has as its target PAK6 (Homo sapiens, UniProt Q9NQU5). Conditions: 100 μM compound, 20 μM ATP; read-out: Kinase activity, % of activity in the absence of inhibitor. The method in brief:
as §1

The next experiment addresses PIM2 (Homo sapiens, UniProt Q9P1W9). As to conditions: 100 μM compound, 5 μM ATP; read-out: Kinase activity, % of activity in the absence of inhibitor. An outline of the steps:
as §1

The target in the next experiment is RSK1 (Homo sapiens, UniProt Q15418). As to conditions: 100 μM compound, 50 μM ATP; read-out: Kinase activity, % of activity in the absence of inhibitor. The method in brief: as §1
The target of the next experiment is T1, EPH-B4 (Homo sapiens, UniProt P54760).
T1 sequence (P54760 16-987): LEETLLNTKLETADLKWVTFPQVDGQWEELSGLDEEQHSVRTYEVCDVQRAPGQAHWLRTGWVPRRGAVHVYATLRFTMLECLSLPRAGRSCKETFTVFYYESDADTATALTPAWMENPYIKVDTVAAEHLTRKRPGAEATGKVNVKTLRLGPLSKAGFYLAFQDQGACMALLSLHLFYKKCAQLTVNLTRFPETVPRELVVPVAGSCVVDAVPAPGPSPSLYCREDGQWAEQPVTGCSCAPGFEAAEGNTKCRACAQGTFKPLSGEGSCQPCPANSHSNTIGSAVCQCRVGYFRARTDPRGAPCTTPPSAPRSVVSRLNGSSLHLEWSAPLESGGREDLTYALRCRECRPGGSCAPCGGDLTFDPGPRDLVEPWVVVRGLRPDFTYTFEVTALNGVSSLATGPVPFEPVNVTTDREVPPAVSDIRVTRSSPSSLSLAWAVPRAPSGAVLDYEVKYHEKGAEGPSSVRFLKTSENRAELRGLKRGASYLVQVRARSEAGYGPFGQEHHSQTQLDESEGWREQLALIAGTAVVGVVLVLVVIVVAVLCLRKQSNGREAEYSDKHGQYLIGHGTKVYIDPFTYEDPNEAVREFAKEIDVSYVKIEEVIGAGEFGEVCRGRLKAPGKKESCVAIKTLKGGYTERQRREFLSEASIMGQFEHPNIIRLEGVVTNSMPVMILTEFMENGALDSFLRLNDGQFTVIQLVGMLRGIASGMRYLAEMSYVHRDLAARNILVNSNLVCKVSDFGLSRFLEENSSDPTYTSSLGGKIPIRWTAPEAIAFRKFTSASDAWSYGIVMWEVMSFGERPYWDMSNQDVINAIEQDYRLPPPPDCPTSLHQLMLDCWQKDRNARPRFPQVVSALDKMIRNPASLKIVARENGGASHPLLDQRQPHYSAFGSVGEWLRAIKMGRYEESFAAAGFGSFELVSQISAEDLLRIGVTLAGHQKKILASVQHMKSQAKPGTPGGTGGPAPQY
Conditions: 100 μM compound, 50 μM ATP; read-out: Kinase activity, % of activity in the absence of inhibitor. An outline of the steps:
as §1

The next experiment addresses EPH-A4 (Homo sapiens, UniProt P54764). As to conditions: 100 μM compound, 50 μM ATP; read-out: Kinase activity, % of activity in the absence of inhibitor. An outline of the steps:
as §1

The next experiment concerns the target MKK1 (Homo sapiens, UniProt Q02750). Conditions: 100 μM compound, 5 μM ATP; read-out: Kinase activity, % of activity in the absence of inhibitor. An outline of the steps: as §1
For another experiment, the target named is T2, DYRK3 (Homo sapiens, UniProt O43781).
T2 sequence (O43781 1-588): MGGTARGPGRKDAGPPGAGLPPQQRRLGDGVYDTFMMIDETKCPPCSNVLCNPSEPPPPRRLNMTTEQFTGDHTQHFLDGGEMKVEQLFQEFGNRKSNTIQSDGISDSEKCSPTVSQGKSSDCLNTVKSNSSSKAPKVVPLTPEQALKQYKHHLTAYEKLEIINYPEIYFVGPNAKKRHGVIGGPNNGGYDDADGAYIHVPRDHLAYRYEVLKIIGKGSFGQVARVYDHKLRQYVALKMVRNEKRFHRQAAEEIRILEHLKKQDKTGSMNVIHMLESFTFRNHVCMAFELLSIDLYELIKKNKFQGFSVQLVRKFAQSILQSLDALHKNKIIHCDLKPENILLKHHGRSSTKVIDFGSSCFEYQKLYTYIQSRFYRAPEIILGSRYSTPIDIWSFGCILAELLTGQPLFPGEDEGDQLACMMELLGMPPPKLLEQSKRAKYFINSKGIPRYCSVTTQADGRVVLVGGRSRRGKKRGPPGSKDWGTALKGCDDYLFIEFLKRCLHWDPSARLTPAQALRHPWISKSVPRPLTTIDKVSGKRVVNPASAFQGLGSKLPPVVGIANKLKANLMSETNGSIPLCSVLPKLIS
Conditions: 100 μM compound, 5 μM ATP; read-out: Kinase activity, % of activity in the absence of inhibitor. An outline of the steps: as §1

A further experiment deals with MLK1 (Homo sapiens, UniProt P80192). Conditions: 100 μM compound, 20 μM ATP; read-out: Kinase activity, % of activity in the absence of inhibitor. The method in brief: as §1
The next experiment concerns the target BRK (Homo sapiens, UniProt Q13882). Conditions: 100 μM compound, 20 μM ATP; read-out: Kinase activity, % of activity in the absence of inhibitor. An outline of the steps: as §1
The next experiment deals with T3, PRAK (Homo sapiens, UniProt Q8IW41).
T3 sequence (Q8IW41 1-473): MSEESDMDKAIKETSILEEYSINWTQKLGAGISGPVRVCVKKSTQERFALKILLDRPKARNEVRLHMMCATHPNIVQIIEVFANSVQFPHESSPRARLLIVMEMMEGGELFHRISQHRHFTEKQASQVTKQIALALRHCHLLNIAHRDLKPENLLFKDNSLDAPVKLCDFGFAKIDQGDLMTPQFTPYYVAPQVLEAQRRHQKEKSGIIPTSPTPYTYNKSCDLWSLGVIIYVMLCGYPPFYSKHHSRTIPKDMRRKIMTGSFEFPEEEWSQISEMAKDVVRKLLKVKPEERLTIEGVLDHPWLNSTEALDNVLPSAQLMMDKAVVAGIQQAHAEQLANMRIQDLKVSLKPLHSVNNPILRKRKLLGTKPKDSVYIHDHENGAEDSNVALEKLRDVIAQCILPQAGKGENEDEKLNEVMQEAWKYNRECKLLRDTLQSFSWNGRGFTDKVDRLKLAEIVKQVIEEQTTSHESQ
As to conditions: 100 μM compound, 20 μM ATP; read-out: Kinase activity, % of activity in the absence of inhibitor. The method in brief:
as §1

The structures appear in SMILES notation.

Sequence of BRK (Q13882 whole entry): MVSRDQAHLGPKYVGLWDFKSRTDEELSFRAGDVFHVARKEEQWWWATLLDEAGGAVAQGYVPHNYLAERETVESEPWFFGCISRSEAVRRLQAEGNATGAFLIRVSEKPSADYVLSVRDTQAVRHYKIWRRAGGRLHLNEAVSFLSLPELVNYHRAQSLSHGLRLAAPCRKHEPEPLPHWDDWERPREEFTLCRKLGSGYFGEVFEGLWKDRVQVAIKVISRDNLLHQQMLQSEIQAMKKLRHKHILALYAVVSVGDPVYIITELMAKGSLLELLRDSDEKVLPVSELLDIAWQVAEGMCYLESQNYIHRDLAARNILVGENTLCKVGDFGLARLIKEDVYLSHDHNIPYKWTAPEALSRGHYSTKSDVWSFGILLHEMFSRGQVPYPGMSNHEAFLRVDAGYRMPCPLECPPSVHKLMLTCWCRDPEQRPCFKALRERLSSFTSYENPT
Sequence of PIM2 (Q9P1W9 whole entry): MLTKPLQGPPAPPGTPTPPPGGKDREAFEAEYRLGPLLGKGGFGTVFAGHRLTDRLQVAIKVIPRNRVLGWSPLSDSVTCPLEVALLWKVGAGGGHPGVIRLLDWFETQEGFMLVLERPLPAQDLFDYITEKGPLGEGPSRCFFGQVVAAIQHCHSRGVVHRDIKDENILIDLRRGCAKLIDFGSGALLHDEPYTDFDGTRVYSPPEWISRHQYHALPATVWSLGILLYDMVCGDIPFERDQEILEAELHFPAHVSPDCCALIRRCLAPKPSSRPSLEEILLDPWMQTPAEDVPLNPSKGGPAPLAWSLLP
Sequence of MLK1 (P80192 whole entry): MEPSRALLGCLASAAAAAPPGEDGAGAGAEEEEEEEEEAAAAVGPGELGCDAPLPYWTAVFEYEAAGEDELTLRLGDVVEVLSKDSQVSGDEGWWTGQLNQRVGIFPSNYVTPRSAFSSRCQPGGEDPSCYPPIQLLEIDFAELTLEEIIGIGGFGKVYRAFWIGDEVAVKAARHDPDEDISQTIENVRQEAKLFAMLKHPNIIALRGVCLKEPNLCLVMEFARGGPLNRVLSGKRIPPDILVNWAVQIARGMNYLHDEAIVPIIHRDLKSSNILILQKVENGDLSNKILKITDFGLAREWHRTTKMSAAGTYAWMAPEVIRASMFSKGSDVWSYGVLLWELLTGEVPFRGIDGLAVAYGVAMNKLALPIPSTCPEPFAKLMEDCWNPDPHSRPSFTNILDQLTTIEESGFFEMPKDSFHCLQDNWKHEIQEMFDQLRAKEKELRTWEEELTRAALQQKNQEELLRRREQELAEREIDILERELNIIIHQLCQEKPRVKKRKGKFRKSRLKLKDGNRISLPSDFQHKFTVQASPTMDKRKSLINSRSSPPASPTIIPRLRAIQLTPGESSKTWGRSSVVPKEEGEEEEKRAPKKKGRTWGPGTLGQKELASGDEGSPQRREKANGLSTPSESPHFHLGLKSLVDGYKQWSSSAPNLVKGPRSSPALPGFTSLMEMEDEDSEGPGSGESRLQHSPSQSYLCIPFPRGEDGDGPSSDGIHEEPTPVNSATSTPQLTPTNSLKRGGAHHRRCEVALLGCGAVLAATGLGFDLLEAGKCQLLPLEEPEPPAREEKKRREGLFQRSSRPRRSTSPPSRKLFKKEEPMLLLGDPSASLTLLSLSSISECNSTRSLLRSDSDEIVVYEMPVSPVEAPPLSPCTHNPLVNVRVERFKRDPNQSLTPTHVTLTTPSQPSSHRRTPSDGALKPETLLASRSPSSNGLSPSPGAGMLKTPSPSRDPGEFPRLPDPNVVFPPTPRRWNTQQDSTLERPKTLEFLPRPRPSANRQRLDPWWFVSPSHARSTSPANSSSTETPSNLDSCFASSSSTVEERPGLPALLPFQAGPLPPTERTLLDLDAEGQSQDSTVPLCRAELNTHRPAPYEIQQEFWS
Sequence of MKK1 (Q02750 whole entry): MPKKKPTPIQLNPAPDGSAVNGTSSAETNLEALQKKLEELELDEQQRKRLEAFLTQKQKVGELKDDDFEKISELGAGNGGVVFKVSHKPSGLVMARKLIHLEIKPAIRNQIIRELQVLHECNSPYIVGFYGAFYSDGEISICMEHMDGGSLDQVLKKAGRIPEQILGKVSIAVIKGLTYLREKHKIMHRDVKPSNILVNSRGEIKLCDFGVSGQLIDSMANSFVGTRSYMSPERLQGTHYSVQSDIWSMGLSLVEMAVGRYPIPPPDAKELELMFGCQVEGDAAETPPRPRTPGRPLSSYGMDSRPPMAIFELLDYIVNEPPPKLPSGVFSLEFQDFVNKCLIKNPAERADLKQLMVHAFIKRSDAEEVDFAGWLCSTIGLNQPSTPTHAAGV
Sequence of EPH-A4 (P54764 20-986): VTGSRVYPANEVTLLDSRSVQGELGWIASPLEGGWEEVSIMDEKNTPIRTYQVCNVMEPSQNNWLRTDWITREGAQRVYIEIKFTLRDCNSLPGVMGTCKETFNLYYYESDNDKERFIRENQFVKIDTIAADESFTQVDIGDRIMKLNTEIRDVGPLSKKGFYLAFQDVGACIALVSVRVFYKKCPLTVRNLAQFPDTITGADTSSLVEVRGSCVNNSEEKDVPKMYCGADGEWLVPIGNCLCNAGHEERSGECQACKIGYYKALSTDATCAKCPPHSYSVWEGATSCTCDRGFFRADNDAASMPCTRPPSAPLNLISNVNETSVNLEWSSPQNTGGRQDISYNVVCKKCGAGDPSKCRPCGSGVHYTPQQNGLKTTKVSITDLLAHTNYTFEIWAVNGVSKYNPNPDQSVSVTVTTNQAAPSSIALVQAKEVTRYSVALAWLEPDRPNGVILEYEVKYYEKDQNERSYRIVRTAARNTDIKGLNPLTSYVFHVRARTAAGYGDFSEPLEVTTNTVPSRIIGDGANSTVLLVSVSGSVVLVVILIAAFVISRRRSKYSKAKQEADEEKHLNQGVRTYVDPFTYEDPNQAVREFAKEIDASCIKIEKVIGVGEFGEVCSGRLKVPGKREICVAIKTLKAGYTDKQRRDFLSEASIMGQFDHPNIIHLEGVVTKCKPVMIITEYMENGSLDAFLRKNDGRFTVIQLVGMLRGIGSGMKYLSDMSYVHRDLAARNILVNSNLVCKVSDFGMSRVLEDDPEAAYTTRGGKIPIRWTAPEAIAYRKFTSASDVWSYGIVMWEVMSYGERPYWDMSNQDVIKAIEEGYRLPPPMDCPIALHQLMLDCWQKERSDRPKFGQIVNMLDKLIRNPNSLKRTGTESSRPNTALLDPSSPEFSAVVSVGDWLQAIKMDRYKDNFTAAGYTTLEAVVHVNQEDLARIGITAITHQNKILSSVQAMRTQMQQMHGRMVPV
Sequence of PAK6 (Q9NQU5 whole entry): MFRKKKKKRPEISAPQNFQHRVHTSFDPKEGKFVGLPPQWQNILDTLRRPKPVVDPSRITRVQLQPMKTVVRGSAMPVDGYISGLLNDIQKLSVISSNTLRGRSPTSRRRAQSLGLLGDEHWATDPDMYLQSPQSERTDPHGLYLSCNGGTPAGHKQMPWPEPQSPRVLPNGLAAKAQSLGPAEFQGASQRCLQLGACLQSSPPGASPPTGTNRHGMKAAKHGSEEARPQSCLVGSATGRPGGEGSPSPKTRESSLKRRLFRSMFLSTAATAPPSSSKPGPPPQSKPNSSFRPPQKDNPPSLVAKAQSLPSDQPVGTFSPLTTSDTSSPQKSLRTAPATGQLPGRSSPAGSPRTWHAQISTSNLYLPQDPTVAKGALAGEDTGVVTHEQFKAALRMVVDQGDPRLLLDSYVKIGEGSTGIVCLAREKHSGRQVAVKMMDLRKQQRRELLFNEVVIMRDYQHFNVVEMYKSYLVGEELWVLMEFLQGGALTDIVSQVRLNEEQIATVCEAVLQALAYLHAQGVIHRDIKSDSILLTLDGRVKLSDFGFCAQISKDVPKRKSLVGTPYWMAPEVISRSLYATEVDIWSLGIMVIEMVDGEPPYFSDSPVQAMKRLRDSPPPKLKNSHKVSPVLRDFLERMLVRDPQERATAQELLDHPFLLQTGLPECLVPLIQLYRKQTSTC
Sequence of RSK1 (Q15418 whole entry): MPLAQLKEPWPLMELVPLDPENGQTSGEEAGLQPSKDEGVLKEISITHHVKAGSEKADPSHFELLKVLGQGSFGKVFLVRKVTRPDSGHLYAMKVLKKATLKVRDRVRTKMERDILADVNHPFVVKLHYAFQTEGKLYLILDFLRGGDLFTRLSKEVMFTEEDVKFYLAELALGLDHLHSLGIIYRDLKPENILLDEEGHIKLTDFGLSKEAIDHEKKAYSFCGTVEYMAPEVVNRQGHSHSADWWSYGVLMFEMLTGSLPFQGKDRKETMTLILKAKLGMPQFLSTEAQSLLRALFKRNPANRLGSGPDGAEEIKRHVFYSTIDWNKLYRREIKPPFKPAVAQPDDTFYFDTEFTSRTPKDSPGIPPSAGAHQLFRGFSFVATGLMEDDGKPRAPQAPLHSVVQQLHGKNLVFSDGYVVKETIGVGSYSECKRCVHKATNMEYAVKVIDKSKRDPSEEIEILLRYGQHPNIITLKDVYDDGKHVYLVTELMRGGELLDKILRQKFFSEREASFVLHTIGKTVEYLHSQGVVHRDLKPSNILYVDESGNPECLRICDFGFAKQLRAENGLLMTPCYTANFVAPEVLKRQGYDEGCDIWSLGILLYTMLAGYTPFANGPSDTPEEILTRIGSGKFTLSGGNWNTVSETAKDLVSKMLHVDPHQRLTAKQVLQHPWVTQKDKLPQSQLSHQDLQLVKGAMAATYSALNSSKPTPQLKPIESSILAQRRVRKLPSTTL

As to `CC(C)(COP(=O)(O)OP(=O)(O)OCC1OC(n2cnc3c(N)ncnc32)C(O)C1O)C(O)C(=O)NCCC(=O)NCCS` (stereo not drawn) [dpCoA, dephospho-CoA], the activity at 100 µM turned out to be 103% on EF2K; 104% at MELK; 101% at PAK6; 62.9% at PIM2; 98.9% at RSK1; 62.1% at EPH-B4. Also, the activity at 100 µM at EPH-A4 amounted to 75.6%; on MKK1 it was 52.3%; on DYRK3, 91.2%; at MLK1 it was 76%; at BRK it was 83.1%; on PRAK, 77.7%.
Consider `CC(C)(COP(=O)(O)OP(=O)(O)OC[C@H]1O[C@@H](n2cnc3c(N)ncnc32)[C@H](O)[C@@H]1OP(=O)(O)O)[C@@H](O)C(=O)NCCC(=O)NCCS` [CoA, Coenzyme A], for which the activity at 100 µM on EF2K was found to be 67.1%; at MELK it was 76.3%; at PAK6, 98.4%; on PIM2 it was 111%; on RSK1 it was 97.2%; on EPH-B4, 107%. Further, the activity at 100 µM at EPH-A4 was 115%; on MKK1, 107%; on DYRK3 it was 95.1%; at MLK1, 110%; on BRK it was 114%; on PRAK, 99.7%.
As for `Nc1ncnc2c1ncn2C1OC(COP(=O)(O)OP(=O)(O)O)C(O)C1O` (stereo not drawn) [ADP], the activity at 100 µM came to 86.2% on EF2K; 63.5% on MELK; 78.4% on PAK6; 9.8% on PIM2; 58.5% at RSK1; 9.8% at EPH-B4. In addition, the activity at 100 µM at EPH-A4 was found to be 32.5%; on MKK1, 16.4%; on DYRK3 it was 16.2%; at MLK1, 41.4%; at BRK it was 41.3%; at PRAK it was 15.2%.

(Values after article PMC6812009, “Covalent Aurora A regulation by the metabolic integrator coenzyme A” (Redox Biology, 2019).)
